Measurements taken from US5130327A, “Indole derivatives” (Consejo Superior de Investigaciones Cientificas, priority 1989, dated 1992).

Experiments:
[1] = target: T1, Bovine Brain MAO A (Bos taurus, UniProt P21398); experiment: In vitro inhibition of MAO from bovine brain mitochondria, tyramine as substrate (form A); type: biochemical; settings: pI50 = -log [I50], molar
T1 construct: in vitro activity of MAO from bovine brain mitochondria; from tissue; host or cells: bovine brain mitochondria
T1 sequence (P21398 1-527): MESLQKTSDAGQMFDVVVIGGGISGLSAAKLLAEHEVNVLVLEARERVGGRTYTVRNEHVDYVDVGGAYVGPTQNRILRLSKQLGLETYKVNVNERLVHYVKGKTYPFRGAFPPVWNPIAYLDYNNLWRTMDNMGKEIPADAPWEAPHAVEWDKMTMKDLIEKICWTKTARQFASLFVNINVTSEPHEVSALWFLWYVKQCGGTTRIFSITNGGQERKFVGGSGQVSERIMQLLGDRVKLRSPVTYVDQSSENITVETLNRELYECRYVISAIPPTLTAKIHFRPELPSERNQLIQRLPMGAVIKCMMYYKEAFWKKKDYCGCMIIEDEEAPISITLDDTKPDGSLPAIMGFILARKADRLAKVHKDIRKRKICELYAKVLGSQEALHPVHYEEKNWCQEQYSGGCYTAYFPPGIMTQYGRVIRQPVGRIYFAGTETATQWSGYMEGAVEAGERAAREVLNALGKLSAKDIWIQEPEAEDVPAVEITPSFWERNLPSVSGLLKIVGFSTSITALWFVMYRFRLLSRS
Text: (§1) The following table illustrates the structure of particular compounds of the invention (1). It also gives specific pI50 values where pI50 =-log [I50 ] where [I50 ] is the molar concentration of test compound which inhibits 50% of the in vitro activity of MAO from bovine brain mitochondria using tyramine as substrate.

[2] = target: T2, Bovine Brain MAO B (Bos taurus, UniProt P56560); experiment: In vitro inhibition of MAO from bovine brain mitochondria, tyramine as substrate (form B); type: biochemical; set-up: key to Bovine Brain MAO, mark printed in place of a B value (nonselective): ns = nonselective; settings: for IC50: pI50 = -log [I50], molar, bovine brain mitochondria, tyramine as substrate; for Bovine Brain MAO, mark printed in place of a B value (nonselective): one pI50 given, no separate A and B values
T2 construct: in vitro activity of MAO from bovine brain mitochondria; from tissue; host or cells: bovine brain mitochondria
T2 sequence (P56560 1-520): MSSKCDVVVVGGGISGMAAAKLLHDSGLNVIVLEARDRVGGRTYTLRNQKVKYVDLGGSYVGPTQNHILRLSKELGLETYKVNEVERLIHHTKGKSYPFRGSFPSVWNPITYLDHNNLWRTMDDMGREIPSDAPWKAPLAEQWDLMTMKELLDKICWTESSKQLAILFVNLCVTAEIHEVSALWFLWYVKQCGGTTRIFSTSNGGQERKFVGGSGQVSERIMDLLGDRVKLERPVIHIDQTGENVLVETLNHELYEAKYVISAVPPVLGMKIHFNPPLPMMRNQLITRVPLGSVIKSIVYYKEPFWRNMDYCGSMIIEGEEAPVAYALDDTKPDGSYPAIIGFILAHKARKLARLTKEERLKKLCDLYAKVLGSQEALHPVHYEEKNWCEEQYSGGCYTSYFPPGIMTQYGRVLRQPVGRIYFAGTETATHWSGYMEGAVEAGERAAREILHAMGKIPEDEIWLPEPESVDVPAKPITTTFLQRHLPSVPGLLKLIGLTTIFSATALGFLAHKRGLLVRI
Text: as §1

[3] = tested on: rat cerebral MAO A and B; experiment: MAO inhibitory activity at the biochemical level (reversibility and selectivity)
Text: To determine MAO inhibitory activity at the biochemical level the following tests are used:
1. "In vitro inhibition" of rat cerebral MAO A and B giving I50 values for the two forms of the enzyme. Male Wistar rats (200 g) were used. Brains were obtained by decapitation and were homogenized. As substrates of the enzymes ^14 C-5-hydroxytryptamine oxalate 54 mCi/mmol and ^14 C-β-phenylethylamine were used. The residual enzymatic activities were referred to the activities in absence of MAO inhibitor (100%).
2. "Ex vivo inhibition" of rat cerebral MAO A and B after single dosing.
This gives the degree of inhibition in vivo of both forms of the enzyme and variation of this inhibition with time after treatment with a single dose. The compounds were administered intraperitoneally to male Wistar rats (175 g.) at a dose of 5 mg/kg in 1 ml/kg (H2 O). Animals were sacrificed by decapitation 24 h. and 7 days after treatment and brains were removed and homogenized. Enzymatic activities determined in treated animals, were compared with the activities in control animals (100%).
3. "Ex vivo" inhibition of rat cerebral MAO A and B after repeated dosing.
Male Wistar rats (175 g) were used.
The compounds were administered once daily intraperitonally for 7 days at a dose of 0.5 and 1 mg/kg in 1 ml/kg […]. […]

[4] = tested on: reuptake of noradrenaline; experiment: Reuptake of noradrenaline in vitro, crude synaptosomal preparation; type: biochemical, rat
Description: Influence on the reuptake of monoamines "in vitro" was also studied. The effect of the compounds on the reuptake of 5-HT noradrenaline and dopamine was studied using Wistar male rats (350±2.5 g). They were kept under controlled light and temperature conditions and fed "ad libitum" until killed. The animals were killed by decapitation and brains were frozen and stored at -20° C. prior to analysis. Brains were dissected on an ice-filled petri dish. The cortices for 5-HT and noradrenaline assay and striatum (including caudate nucleus, putamen and globus pallidus) for dopamine assay were immediately weighed and homogenized. The standard incubation medium contained: 1.7 μM ^14 C-5-HT); 0.5μM ^3 H-noradrenaline or 1 μM ^3 H-dopamine with 0.1 ml of the crude synaptosomal preparation. All drugs used in the study were dissolved in the incubation medium in a concentration range 10^-4 to 10^-8 M and were preincubated with the crude synaptosomal preparation obtained from the treated brains, for 5 min. at 37° C. or 0° C. before the addition of the labelled substrate.

[5] = tested on: cerebral β-adrenergic receptors; experiment: Effects of chronic treatment on β receptors; type: in vivo; settings: chronic administration in the rat
Description: Effects of chronic treatment on α2 -, β- and 5-HT2 receptors. The test compounds, at a dose of 10 mg/kg/day i.p., were administered for 21 days to Wistar male rats (250±2.4 g). After treatment the animals were killed, brains were dissected and cortices were scraped from the dorsal surface of the […]. ^3 H UK 14304, ^3 H Dihydroalprenalol and ^3 H Ketanserin were used as ligands in the binding studies.

[6] = Behavioural Despair (Porsolt's test); type: in vivo; settings: acute treatment; read-out: Porsolt's test MED, acute
Description: The pharmacological profile was carried out assessing the antidepressant activity with the following tests:
Behavioural Despair (Porsolt et al. Arch. Int. Pharmacodyn; 229:327-336, 1977),

[7] = Interaction with clonidine-induced hypoactivity; type: in vivo
Text: (§2) The action mechanism was studied in acute and chronic treatments on the interaction response with clonidine, salbutamol (Richard, J. Intern. J. Neuroscience, 9:17-19, 1979) and tetrabenazine (Pletscher, A.: An. N.Y. Aca. Sci. 80:1039-1045, 1959), and the response to the potentiation with L-dopa, L-tryptophan, tryptamine (Jalfre, M. et al., Arch. Int. Pharmacodyn, 159:194-221, 1982) and β-phenylethylamine (Ortmann, et al, Psychopharmacol. 84:22-27, 1984).

[8] = Interaction with salbutamol-induced hypoactivity; type: in vivo
Text: as §2

[9] = Potentiation of 5-HT; type: in vivo; settings: in vivo
[10] = Potentiation of β-phenylethylamine; type: in vivo; settings: in vivo
Text: as §2

[11] = "Cheese effect" by tyramine potentiation; settings: in vivo
Description: (§3) The secondary effects were studied mainly on the cardiovascular system, and the effects on the arterial pressure, heart rate and rhythm, P-R interval and isolated organ (rabbit aortic rings and isolated atria), were evaluated both after acute and chronic treatments. In the same way, the "cheese effect" was studied by means of the tyramine potentiation.

[12] = Secondary effects on the cardiovascular system; settings: in vivo
Description: as §3

[13] = tested on: rat uterus; settings: Arch. Int. Pharmacodyn. 1961, 133, 138-158; cited from earlier work

SMILES	IC50 [1] [nM]	IC50 [2] [nM]	Bovine Brain MAO, mark printed in place of a B value (nonselective) [2]	also measured
C#CCNCc1cc2cc(OC)ccc2n1C [(j), N-propargyl-2-(1-methyl-5-methoxy-indolyl)methylamine]	20.9	44700	–	–
C#CCN(C)Cc1cc2cc(OC)ccc2[nH]1 [(c), N-methyl-N-propargyl-2-(5-methoxy-indolyl)methylamine]	7.08	447	–	–
COc1ccc2[nH]c(CN)cc2c1 [(s), 2-(5-methoxy-indolyl)methylamine]	50100	–	ns	Type of MAO inhibition (reversibility, selectivity) [3]: reversible and mixed inhibitor of MAO; Effect on the reuptake of noradrenaline [4]: does not affect; Number or affinity of cerebral β-adrenergic receptors [5]: does not modify; minimal effective dose [6]: 25 mg/kg; Clonidine-induced hypoactivity, acute ([7]; acute (10.2 mg/kg)): no action; Clonidine-induced hypoactivity, chronic ([7]; chronic treatment (10.2 mg/kg) during 5 days): no action; Hypoactivity induced by salbutamol, acute ([8]; acute treatment): does not do so; Hypoactivity induced by salbutamol, chronic ([8]; chronic treatment (10.2 mg/kg)): counteracts; Activity in test of potentiation of 5-HT [9]: inactive; Activity in test of potentiation of β-phenylethylamine [10]: inactive; "Cheese effect" [11]: no "cheese effect"; Cardiovascular effects [12]: does not produce any significant cardiovascular effects
CNCc1cc2cc(OC)ccc2[nH]1 [(t), N-methyl-2-(5-methoxy-indolyl)methylamine]	≥ 100000	> 100000	–	Antagonistic activity on the rat uterus [13]: a weak unspecific antagonistic activity
C=C=CCNCc1cc2cc(OC)ccc2n1C [(p), N-(2,3-butadienyl)-2-(1-methyl-5-methoxy-indolyl)methylamine]	21.9	398	–	–
CC#CCN(C)Cc1cc2cc(OC)ccc2[nH]1 [(f), N-(2-butynyl)-N-methyl-2-(5-methoxy-indolyl)methylamine]	8.91	12900	–	–
C=C=CCNCc1cc2cc(OC)ccc2[nH]1 [(g), N-(2,3-butadienyl)-2-(5-methoxy-indolyl)methylamine]	44.7	2510	–	–
C=C=CCN(CC=C=C)Cc1cc2cc(OC)ccc2[nH]1 [(h), N,N-bis(2,3-butadienyl)-2-(5-methoxy-indolyl)methylamine]	447	–	ns	–
C=C=CCN(C)Cc1cc2cc(OC)ccc2[nH]1 [(i), N-(2,3-butadienyl)-N-methyl-2-(5-methoxy-indolyl)methylamine]	17.8	5010	–	–
CC#CCNCc1cc2cc(OC)ccc2[nH]1 [(d), N-(2-butynyl)-2-(5-methoxy-indolyl)methylamine]	631	> 331000	–	–
C#CCNCc1cc2cc(OC)ccc2[nH]1 [(a), N-propargyl-2-(5-methoxy-indolyl)methylamine]	219	110000	–	–
CNCc1cc2cc(OC)ccc2n1C [(v), N-methyl-2-(1-methyl-5-methoxy-indolyl)methylamine]	129000	–	ns	–

Continued, in another order:

IC50 [1] [nM]	IC50 [2] [nM]	Bovine Brain MAO, mark printed in place of a B value (nonselective) [2]	SMILES	also measured
18200	–	ns	COc1ccc2c(c1)cc(CN)n2C [(u), 2-(1-methyl-5-methoxy-indolyl)methylamine]	–
≥ 20000	> 20000	–	CC#CCN(CC#CC)Cc1cc2cc(OC)ccc2[nH]1 [(e), N,N-bis(2-butynyl)-2-(5-methoxy-indolyl)methylamine]	–
5.37	501	–	C=C=CCN(C)Cc1cc2cc(OC)ccc2n1C [(r), N-(2,3-butadienyl)-N-methyl-2-(1-methyl-5-methoxy-indolyl)-methylamine]	–
35.5	–	ns	CC#CCN(C)Cc1cc2cc(OC)ccc2n1C [(o), N-(2-butynyl)-N-methyl-2-(1-methyl-5-methoxy-indolyl)methylamine]	–
2820	–	ns	C#CCN(CC#C)Cc1cc2cc(OC)ccc2n1C [(k), N,N-bis(propargyl)-2-(1-methyl-5-methoxy-indolyl)methylamine]	–
302	–	ns	C=C=CCN(CC=C=C)Cc1cc2cc(OC)ccc2n1C [(q), N,N-bis(2,3-butadienyl)-2-(1-methyl-5-methoxy-indolyl)methylamine]	–
3980	> 501000	–	CC#CCN(CC#CC)Cc1cc2cc(OC)ccc2n1C [(n), N,N-bis(2-butynyl)-2-(1-methyl-5-methoxy-indolyl)methylamine]	–
129	79400	–	CC#CCNCc1cc2cc(OC)ccc2n1C [(m), N-(2-butynyl)-2-(1-methyl-5-methoxy-indolyl)methylamine]	–
